Broadly, the GI50 is the concentration at which growth is held to half of that of the control.

This passage reports GI50 results from patent US8410150B2, “Inhibitors of carnitine palmitoyltransferase and treating cancer” (University Health Network, priority 2007, dated 2013).

Assay in all cases: Cell growth inhibition, SRB assay
What all share (format): cell-based, human
For orientation: Sulforhodamine B stains cellular protein and so reports cell mass.

The test system of assay [1] is A172. As to conditions: Brain A172, 3% FBS; read-out: GI50. The method, then:
(§1) Human cancer cells (MCF-7, H358, H460, HCT116 p53^+/+, HCT116 p53^−/−, A172, PC-3, DU-145 and SW626) were maintained in DMEM medium containing 10% Fetal Bovine Serum (FBS) (Invitrogen, Burlington, ON, Canada) and normal cells HMEC, 184A1, NHBE and PrEC were cultured in MEGM, MEGM plus transferring and cholera toxin, BEGM and PrEGM supplemented with various growth factors (Cambrex, Charles city, IA, USA), respectively.
(§2) Compounds were dissolved in DMSO and further diluted in cell culture medium for the experiments performed. Cells were seeded into 96-well plates with 1,500-5,000 cells/well according to cell growth rate. After 24 h, DMEM medium containing 10% FBS were changed to DMEM containing 3% FBS for cancer cells and additional 3% FBS were added into the culture medium for normal cells. The compound was added into the cell culture at the indicated concentrations, and the final concentration of DMSO was adjusted to a final concentration of 0.1%. Cells were subjected to either normoxic condition (20% O2) for 6 days or hypoxic condition (0.2% O2) for 2 days and then transferred to normoxic condition for 4 days. Cell viability was assessed by Sulforhodamine B (SRB) assay at Day 6.
(§3) Sulforhodamine B (SRB) (Sigma, Oakville, ON, Canada) is a water-soluble dye that binds to the basic amino acids of the cellular proteins. Thus, colorimetric measurement of the bound dye provides an estimate of the total protein mass that is related to the cell number. The cells were fixed in situ by gently aspirating off the culture media and adding 50 ul of cold 10% trichloroacetic Acid (TCA) per well and incubated at 4° C. for 30-60 min. The plates were washed five times with water and allowed to air dry for 5 min. 50 ul of 0.4% (w/v) SRB dissolved in 1% (v/v) acetic acid were added into each well, plates were then incubated at RT for 30 min for staining, washed four times with 1% acetic acid to remove any unbound dye and then allowed to air dry for 5 min. Stain was solubilized with 100 ul of 10 mM Tris pH 10.5 per well. Absorbance was read at 570 nm on a spectrophotometer. GI50 (compound concentration required for 50% of growth inhibition) was calculated using GraphPad Prism 4.0 software (GraphPad Software, Inc., San Diego, Calif., USA).
(§4) Cell viability of various cell lines treated with 3-carboxy-N,N,N-trimethyl-2-pentadecanamidopropan-1-aminium (“nPAC”) and compound of Examples S7, S63, S66, S90, S89, S67, S75 and S10 was also assessed in a manner as described above in Example 5.

The test system of assay [2] is H358. As to conditions: Lung H358, 3% FBS; read-out: GI50. The protocol:
as §1, §2, §3, §4

Assay [3] concerns MCF-7. As to conditions: Breast MCF-7, 3% FBS; read-out: GI50. The protocol:
as §1, §2, §3, §4

The test system of assay [4] is PC-3. The following applies: Prostate PC-3, 3% FBS; read-out: GI50. The method, then: as §1, §2, §3, §4
Assay [5] has as its system SW626. The following applies: Ovarian SW626, 3% FBS; read-out: GI50. The protocol:
as §1, §2, §3, §4

Assay [6] concerns A54. As to conditions: Lung A54, 3% FBS. The method, then: as §2, §3, §4
Assay [7] concerns COLO-205. As to conditions: Colon COLO-205, 3% FBS. The protocol:
as §2, §3, §4

The test system of assay [8] is Caov-3. The following applies: Ovarian Caov-3, 3% FBS. The protocol: as §2, §3, §4
The test system of assay [9] is HCT-15. The following applies: Colon HCT-15, 3% FBS. The method, then: as §2, §3, §4
In assay [10] the test system is Hs578T. As to conditions: Breast Hs578T, 3% FBS. The protocol:
as §2, §3, §4

The subject of assay [11] is MDA-231. As to conditions: Breast MDA-231, 3% FBS. The protocol: as §2, §3, §4
In assay [12] the test system is SW480. The following applies: Colon SW480, 3% FBS. The method, then:
as §2, §3, §4

Assay [13] concerns SW620. The following applies: Colon SW620, 3% FBS. The protocol:
as §2, §3, §4

With “3-carboxy-N,N,N-trimethyl-2-pentadecanamidopropan-1-aminium [nPAC, reference compound]”, the concentration for 50% growth inhibition (GI50) stood at 3200 nM in assay [1]; 700 nM in [2]; 6600 nM in assay [3]; 2500 nM in [4]; 1200 nM in assay [5]; 20000 nM in [6]. For the same substance, the 50% growth inhibitory concentration (GI50) in [7] turned out to be 400 nM; in assay [8], 1300 nM; in [9], 1500 nM; in [10] it was 19000 nM; in [11], 10000 nM; in [12], 400 nM. Besides, in assay [13], the GI50 came to 500 nM.
